For eleven compounds, logP results are on record in the SangsterLogP compilation.

Usually logP stands for a log measure of how a compound divides between an organic and an aqueous phase.

With `FC(F)(F)F`, the logP amounted to 1.36.
As for `FC(F)C(F)(F)F`, the logP amounted to 1.45.
In turn, `FCC(F)(F)F` came in with a log partition coefficient (logP) of 1.06.
As for `FC(F)=CCl`, the figure is 1.52; as for `FCC(F)(F)Cl`, 1.45.
For the compound `CC(F)(Cl)Cl`, the logP is 1.95.
In the case of `FC(Cl)C(F)(F)F` (stereo unspecified) it was 1.75.
As for `FCC(F)Cl` (stereo unspecified), the figure is 1.62.
Consider `FC(C(F)(F)F)C(F)(F)F`, for which the logP worked out at 2.22.
In the case of `FC(Cl)(Cl)Cl` it was 2.26; in that of `FC(F)=C(F)C(F)(F)F`, 1.98.
